Assay [1] has as its system Candida albicans. Put plainly: Antifungal activity against Candida albicans M61 grown as biofilm assessed as 50% reduction in metabolic activity of biofilm at 64 mg/liter after 24 hrs by XTT assay. It counts as functional, organism-based. For orientation: Tetrazolium dyes change colour on reduction, which living cells bring about.
Assay [2] concerns Candida parapsilosis. Description: Antifungal activity against Candida parapsilosis PA/71 grown as biofilm assessed as 50% reduction in metabolic activity of biofilm after 24 hrs by XTT assay. The class given is functional. The note with it: Lodderomyces parapsilosis, PA/71, 24 h.
Assay [3] relates to Candida parapsilosis. Put plainly: Antifungal activity against Candida parapsilosis PA/71 grown as planktonic cell assessed as minimum drug level required to decrease turbidity by 50% after 24 hrs by CLSI M27-A2 method. The class given is functional. The settings on record: Lodderomyces parapsilosis, PA/71, 24 h.
The subject of assay [4] is Candida albicans. Put plainly: Antifungal activity against Candida albicans GDH2346 grown as biofilm assessed as 50% reduction in metabolic activity of biofilm at 64 mg/liter after 24 hrs by XTT assay. The class given is functional, organism-based.
Assay [5] has as its system Candida albicans. Description: Antifungal activity against Candida albicans GDH2346 grown as planktonic cell assessed as minimum drug level required to decrease turbidity by 50% after 24 hrs by CLSI M27-A2 method. The settings on record: GDH2346, 24 h. It counts as functional.
In assay [6] the test system is Candida albicans. Description: Antifungal activity against Candida albicans M61 grown as planktonic cell assessed as minimum drug level required to decrease turbidity by 50% after 24 hrs by CLSI M27-A2 method. It counts as functional. The note with it: M61, 24 h.
Assay [7] has as its system Candida parapsilosis. Put plainly: Antifungal activity against Candida parapsilosis PA/71 grown as biofilm assessed as 50% reduction in metabolic activity of biofilm at 64 mg/liter after 24 hrs by XTT assay. It counts as functional, organism-based.
Assay [8] relates to Candida albicans. Description: Antifungal activity against Candida albicans GDH2346 grown as biofilm assessed as 50% reduction in metabolic activity of biofilm after 24 hrs by XTT assay. It counts as functional. The note with it: GDH2346, 24 h.
In assay [9] the test system is Candida albicans. Put plainly: Antifungal activity against Candida albicans GDH2346 grown as biofilm assessed as maximum inhibition of biofilm metabolic activity at 8 mg/liter after 24 hrs by XTT assay relative to control. The class given is functional. The note with it: GDH2346, 24 h.
The subject of assay [10] is Candida albicans. Put plainly: Antifungal activity against Candida albicans M61 grown as biofilm assessed as 50% reduction in metabolic activity of biofilm after 24 hrs by XTT assay. It counts as functional. The note with it: M61, 24 h.
The test system of assay [11] is Candida albicans. Put plainly: Antifungal activity against Candida albicans M61 grown as biofilm assessed as maximum inhibition of biofilm metabolic activity at 0.5 mg/liter after 24 hrs by XTT assay relative to control. It counts as functional. The note with it: M61, 24 h.
In assay [12] the test system is Candida parapsilosis. Description: Antifungal activity against Candida parapsilosis PA/71 grown as biofilm >2 mg/liter after 24 hrs by XTT assay. It counts as functional, organism-based.
The subject of assay [13] is Candida albicans. Description: Antifungal activity against Candida albicans M61 grown as biofilm assessed as 50% reduction in metabolic activity of biofilm at 0.06 mg/liter after 24 hrs by XTT assay. The class given is functional, organism-based.
The test system of assay [14] is Candida albicans. Description: Antifungal activity against Candida albicans M61 grown as biofilm assessed as maximum inhibition of biofilm metabolic activity at 2 mg/liter after 24 hrs by XTT assay relative to control. It counts as functional. The note with it: M61, 24 h.
In assay [15] the test system is Candida albicans. Description: Antifungal activity against Candida albicans GDH2346 grown as biofilm >2 mg/liter after 24 hrs by XTT assay. It counts as functional, organism-based.
Assay [16] relates to Candida albicans. Put plainly: Antifungal activity against Candida albicans M61 grown as biofilm at >2 mg/liter after 24 hrs by XTT assay. It counts as functional, organism-based.
Assay [17] has as its system Candida albicans. Put plainly: Antifungal activity against Candida albicans GDH2346 grown as biofilm assessed as maximum inhibition of biofilm metabolic activity at 2 mg/liter after 24 hrs by XTT assay relative to control. The class given is functional. The note with it: GDH2346, 24 h.
In assay [18] the test system is Candida albicans. Description: Antifungal activity against Candida albicans GDH2346 grown as biofilm assessed as 50% reduction in metabolic activity of biofilm at 0.03 mg/liter after 24 hrs by XTT assay. It counts as functional, organism-based.
Assay [19] has as its system Candida parapsilosis. Description: Antifungal activity against Candida parapsilosis PA/71 grown as biofilm assessed as 50% reduction in metabolic activity of biofilm at 256 mg/liter after 24 hrs by XTT assay. It counts as functional, organism-based.
Assay [20] concerns Candida albicans. Put plainly: Antifungal activity against Candida albicans GDH2346 grown as biofilm assessed as 50% reduction in metabolic activity of biofilm at 256 mg/liter after 24 hrs by XTT assay. The class given is functional, organism-based.
Assay [21] deals with Candida albicans. Description: Antifungal activity against Candida albicans M61 grown as biofilm assessed as 50% reduction in metabolic activity of biofilm at 256 mg/liter after 24 hrs by XTT assay. The class given is functional, organism-based.

Converted amounts (≈) assume the structure as drawn. The source made the active and inactive calls. The rule behind the calls is not given here. *1 amine or outer side, *2 acyl side, *3 side chain or, on linkers, in order; H or OH if unused. Where a SMILES comes first, the peptide text is derived from it. Bridges are numbered along the chain shown (N, C = ends). [ ]: non-standard residue; d: D form. The star is where a group is joined. pTerphenylCO(4''-OnC5H11) = CCCCCOc1ccc(-c2ccc(-c3ccc(C(=O)*)cc3)cc2)cc1; Orn(4R-OH,5R-OH) = O=C([C@H](C[C@@H](O)[C@@H](O)N[*:3])N[*:1])[*:2]; hTyr(3S-OH,4S-OH) = N[C@H](C(=O)O)[C@H](O)[C@@H](O)c1ccc(O)cc1; Pro(3S-OH,4S-Me) = C[C@H]1CN[C@H](C(=O)O)[C@H]1O; Hyp = O=C(O)[C@@H]1C[C@@H](O)CN1 Where only a bound is given, the exact number is not on record here.

In the case of `CC[C@@H]([C@H](C)O)n1ncn(-c2ccc(N3CCN(c4ccc(OC[C@@H]5CO[C@@](Cn6cncn6)(c6ccc(F)cc6F)C5)cc4)CC3)cc2)c1=O` [POSACONAZOLE], the result in the assay on Candida albicans [1], in the assay with Candida albicans [4] and in the assay on Candida parapsilosis [7] was inactive. Moreover, the MIC in the assay on Candida parapsilosis [2] was greater than 256 µg/mL; in the assay with Candida parapsilosis [3], 0.01 µg/mL (≈ 0.0143 µM); with Candida albicans [5], no more than 0.001 µg/mL; with Candida albicans [6], no more than 0.001 µg/mL.

One may read the inhibition as how much of the control response was suppressed. As for `CCCCCOc1ccc(-c2ccc(-c3ccc(C(=O)N[C@H]4C[C@@H](O)[C@@H](O)NC(=O)[C@@H]5[C@@H](O)[C@@H](C)CN5C(=O)[C@H]([C@@H](C)O)NC(=O)[C@H]([C@H](O)[C@@H](O)c5ccc(O)cc5)NC(=O)[C@@H]5C[C@@H](O)CN5C(=O)[C@H]([C@@H](C)O)NC4=O)cc3)cc2)cc1` [ANIDULAFUNGIN] ({pTerphenylCO(4''-OnC5H11)}-[Orn(4R-OH,5R-OH)]T[Hyp][hTyr(3S-OH,4S-OH)]T[Pro(3S-OH,4S-Me)]; lactam 1-C), the MIC came to 2 µg/mL (≈ 1.75 µM) in the assay on Candida parapsilosis [2]; 0.125 µg/mL (≈ 0.11 µM) in the assay on Candida parapsilosis [3]; 0.12 µg/mL (≈ 0.105 µM) in the assay with Candida albicans [8]; 0.5 µg/mL (≈ 0.438 µM) with Candida albicans [10]; 0.003 µg/mL (≈ 0.00263 µM) with Candida albicans [5]; 0.003 µg/mL (≈ 0.00263 µM) in the assay with Candida albicans [6]. For the same compound, the inhibition at 8 µg/mL in the assay on Candida albicans [9] was 40%. For the same compound, the inhibition at 0.5 µg/mL with Candida albicans [11] stood at 40%.

`CC[C@H](C)C[C@H](C)CCCCCCCCC(=O)N[C@H]1C[C@@H](O)[C@@H](NCCN)NC(=O)[C@@H]2[C@@H](O)CCN2C(=O)[C@H]([C@H](O)CCN)NC(=O)[C@H]([C@H](O)[C@@H](O)c2ccc(O)cc2)NC(=O)[C@@H]2C[C@@H](O)CN2C(=O)[C@H]([C@@H](C)O)NC1=O` [CASPOFUNGIN]: the outcome with Candida parapsilosis [12], with Candida albicans [13], in the assay with Candida albicans [15], with Candida albicans [16] and in the assay with Candida albicans [18] was Active. In addition, the inhibition at 2 µg/mL in the assay with Candida albicans [14] and with Candida albicans [17] was 30% each time. Besides, the MIC in the assay on Candida parapsilosis [2] is 1 µg/mL (≈ 0.915 µM); in the assay with Candida parapsilosis [3], 0.06 µg/mL (≈ 0.0549 µM); in the assay with Candida albicans [5], 0.03 µg/mL (≈ 0.0274 µM); with Candida albicans [6], 0.06 µg/mL (≈ 0.0549 µM).

For `C[C@@H](c1ncncc1F)[C@](O)(Cn1cncn1)c1ccc(F)cc1F` [VORICONAZOLE], the MIC in the assay on Candida parapsilosis [2] is 256 µg/mL (≈ 733 µM); with Candida parapsilosis [3], 0.03 µg/mL (≈ 0.0859 µM); in the assay on Candida albicans [5] it was 4 µg/mL (≈ 11.5 µM); with Candida albicans [6], 0.01 µg/mL (≈ 0.0286 µM). In addition, the result with Candida parapsilosis [19], with Candida albicans [20] and in the assay on Candida albicans [21] was inactive.

Values taken from ChEMBL document CHEMBL1151450, “Differential activities of newer antifungal agents against Candida albicans and Candida parapsilosis biofilms” (2008).
